Assay [1] relates to acetic acid-induced writhing. Kind of assay: Analgesic activity: Acetic Acid-induced Rat Writhing Assay. In kind it is in vivo. The settings on record: 10 mg/Kg, oral, male Sprague Dawley rats. The source says:
The analgesic activity of compounds of this invention may be determined by the Acetic Acid-induced Rat Writhing Assay, using a modification of the method described in Berkenkopf, J. W. and Weichman, B. M. "Production of Prostacyclin in Mice following Intraperitoneal Injection of Acetic Acid, Phenylbenzoquinone and Zymosan: Its Role in the Writhing Response" Prostaglandins: 36: 693-70 (1988). This assay is one of several acute assays which have been used to assess the analgesic activity of NSAIDs, and is considered predictive of human efficacy. The test materials were administered orally to male Sprague Dawley rats in a volume of 1 ml/100 g body weight as solutions or suspensions in an aqueous vehicle containing 0.9% NaCl 0.5% sodium carboxymethyl-cellulose, 0.4% polysorbate 80, 0.9% benzyl alcohol and 97.3% water. Control rats received vehicle alone. One hour after compound administration, 0.3 ml/100 g body weight of 0.75% solution of acetic acid was injected intraperitoneally. The acetic acid injection induces a series of characteristic writhing responses, which were counted over the period between 15 and 30 minutes after the injection. The analgesic activity of test materials is expressed as the percentage inhibition of writhing in the test group relative to the control group.
On the technique in general: Writhing tests count abdominal constrictions after an irritant is injected.

Another assay deals with T1, COX II (Homo sapiens, UniProt P35354).
T1 construct: made in house; baculovirus-infected insect cells by own knowledge of the cited Barnett et al. 1994
T1 sequence (P35354 18-604): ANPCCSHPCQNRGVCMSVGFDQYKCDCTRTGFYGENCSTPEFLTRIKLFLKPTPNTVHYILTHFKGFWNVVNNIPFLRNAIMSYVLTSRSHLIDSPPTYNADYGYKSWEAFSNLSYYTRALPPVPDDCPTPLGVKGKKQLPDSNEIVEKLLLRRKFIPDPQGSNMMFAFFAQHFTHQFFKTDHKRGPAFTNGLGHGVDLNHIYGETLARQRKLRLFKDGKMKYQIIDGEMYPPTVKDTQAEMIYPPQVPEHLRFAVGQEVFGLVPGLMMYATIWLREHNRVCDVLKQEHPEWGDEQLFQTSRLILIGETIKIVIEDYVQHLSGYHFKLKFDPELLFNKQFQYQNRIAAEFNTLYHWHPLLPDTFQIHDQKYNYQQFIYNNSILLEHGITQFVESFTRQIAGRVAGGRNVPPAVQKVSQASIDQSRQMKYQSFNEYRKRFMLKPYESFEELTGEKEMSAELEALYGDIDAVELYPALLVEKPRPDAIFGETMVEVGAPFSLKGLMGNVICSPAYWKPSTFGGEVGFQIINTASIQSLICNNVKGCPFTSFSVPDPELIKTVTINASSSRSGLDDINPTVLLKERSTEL
Description: Inhibition of COX II in vitro (radiometric assay, 14C arachidonic acid, partially purified enzyme). In kind it is biochemical. The settings on record: partially purified COX II, 20 micromolar arachidonic acid, 10 min preincubation, room temperature; read-out: COX II IC50.

The test system of the next assay is air pouch PGE2 formation. Kind of assay: Inhibition of eicosanoid (PGE2) synthesis in vivo: carrageenan air-pouch model in rats. On the set-up: species or system rat. The settings on record: oral, male rats. As to the method: In this assay, an air-pouch is created in the rat and the PGE2 levels in the air-pouch exudate are measured by enzyme immunoassay. Briefly, male rats were anesthetized using a 60:40 CO2 :O2 mixture and subsequently injected subcutaneously with 20 ml of sterilized air, under aseptic conditions, in the proximal area of the dorsum. This injection of sterile air causes the creation of a subcutaneous "air pouch". The next day, a further 10 ml of sterile air was injected into the previously formed pouch using the same technique. […] Control rats received vehicle alone. After 30 minutes, 5 ml of a 0.5% solution of carrageenan (Sigma, Lambda Type IV) was injected into the air pouch. The rats were euthanized 3 or 6 h after the compound administration. […] The total exudate volume was recorded, and the samples were analyzed for PGE2 and 6-keto PGF1 by ELISA (Titerzyme®, PerSeptive Diagnostics) and TxB2 by radioimmuno assay (New England Nuclear Research, Catalog No. NEK-037), according to the manufacturer's directions.
The mean concentrations of PGE2 were calculated for each group. The anti-inflammatory activity of test materials is expressed as the percent inhibition of PGE2 formation in the test group relative to the control group.

The test system of assay [2] is carrageenan-induced paw edema. Description: Anti-inflammatory activity: inhibition of carrageenan-induced paw edema in the rat. It is filed as in vivo. The settings on record: 10 mg/Kg, oral, female rats, 3 h after carrageenan. The method, then: The anti-inflammatory activity of compounds of this invention was determined by measuring the inhibition of carrageenan-induced paw edema in the rat, using a modification of the method described in Winter C. A. et al. (1962) "Carrageenan-Induced Edema in Hind Paw of the Rat as an Assay for Anti-inflammatory Drugs". Proc. Soc. Exp. Biol. Med. 111: 544-547. This assay has been used as a primary in vivo screen for anti-inflammatoryactivity of most NSAIDs, and is considered predictive of human efficacy. Briefly, test materials were administered orally to female rats in a volume of 1 ml prepared as solutions or suspensions in an aqueous vehicle containing 0.9% NaCl, 0.5% sodium carboxymethyl-cellulose, 0.4% polysorbate 80, 0.9% benzyl alcohol and 97.3% distilled water. Control rats received vehicle alone. After 1 h 0.05 ml of a 0.5% solution of Carrageenan (Type IV Lambda, Sigma Chemical Co.) in 0.9% saline was injected into the subplantar region of the right hind paw. Three hours later the rats were euthanized in a carbon dioxide atmosphere; hind paws were removed by severing at the tatso-crural joint; and the left and right paws were weighed. The increase in weight of the right paw over the left paw was obtained for each animal and the mean increases were calculated for each group. The anti-inflammatory activity of the test materials is expressed as the percent inhibition of the increase in hind paw weight of the test group relative to the vehicle-dosed control group.
For orientation: Carrageenan injected into the paw causes an acute inflammation.

The target in the next assay is T2, COX I (Homo sapiens, UniProt P23219).
T2 construct: made in house; baculovirus-infected insect cells by own knowledge of the cited Barnett et al. 1994
Kind of assay: Inhibition of COX I in vitro (radiometric assay, 14C arachidonic acid, partially purified enzyme). In kind it is biochemical. The settings on record: partially purified COX I, 20 micromolar arachidonic acid, 10 min preincubation, room temperature; read-out: COX I IC50.

The subject of assay [3] is cognitive decline of Alzheimer's patients. The settings on record: cited from earlier work.

pIC50: −log10 of the molar value.

By pIC50 is commonly meant the IC50 on a negative log10 scale, so that one unit is a factor of ten.

T2 sequence (P23219 24-599): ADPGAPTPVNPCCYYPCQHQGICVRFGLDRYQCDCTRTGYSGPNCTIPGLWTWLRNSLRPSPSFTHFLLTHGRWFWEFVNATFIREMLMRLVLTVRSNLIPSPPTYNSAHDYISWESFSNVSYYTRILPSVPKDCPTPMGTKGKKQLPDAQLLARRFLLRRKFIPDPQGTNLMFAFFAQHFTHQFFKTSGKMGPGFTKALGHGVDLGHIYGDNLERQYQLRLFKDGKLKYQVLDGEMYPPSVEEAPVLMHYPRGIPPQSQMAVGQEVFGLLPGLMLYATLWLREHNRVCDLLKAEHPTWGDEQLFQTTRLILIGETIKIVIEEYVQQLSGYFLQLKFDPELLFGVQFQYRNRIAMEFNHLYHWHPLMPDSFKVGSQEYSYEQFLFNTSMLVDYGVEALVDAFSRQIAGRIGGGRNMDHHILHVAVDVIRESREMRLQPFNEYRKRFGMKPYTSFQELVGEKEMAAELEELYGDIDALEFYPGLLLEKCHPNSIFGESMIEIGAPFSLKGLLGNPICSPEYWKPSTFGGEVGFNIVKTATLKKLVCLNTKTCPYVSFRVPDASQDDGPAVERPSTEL

For the molecule `Cc1cc(Cc2ccc(NS(=O)(=O)N(C)C)cc2)n(C)c1C(=O)c1ccc(Cl)cc1` [compound 140, 1-{4-[5-(4-Chlorobenzoyl)-1,4-dimethyl-1H-pyrrol-2-ylmethyl]phenyl}-3,3-di-methylsulfamide], the “% Inhibition of writhing responses” value in assay [1] amounted to 4%. Also, the pIC50 on COX II was 6.92; at COX I it was 5.27. Moreover, the “% Inhibition of air pouch PGE2 formation” value in the assay with air pouch PGE2 formation (30 mg/Kg, 6 hr) came to 83%. The “% Inhibition (of the increase in hind paw weight)” value in assay [2] stood at 27%.
Take `Cc1cc(Cc2ccc(NS(C)(=O)=O)cc2C#N)n(C)c1C(=O)c1ccc(Cl)cc1` [compound 19, N-{3-Cyano-4-[5-(4-chlorobenzoyl)-1,4-dimethyl-1H-pyrrol-2-ylmethyl]phenyl}-methanesulfonamide]: the values for the pIC50 at COX II and at COX I were 7.10 and 6.12, respectively. Further, the “% Inhibition of air pouch PGE2 formation” value in the assay with air pouch PGE2 formation (10 mg/Kg, 3 hr) was determined as 74%. For the same molecule, the “% Inhibition (of the increase in hind paw weight)” value in assay [2] is 36%.
On to `Cc1ccc(C(=O)c2ccc(Cc3ccc(NS(=O)(=O)CCO)cc3F)n2C)cc1` [compound 36, N-{3-Fluoro-4-[5-(4-methylbenzoyl)-1-methyl-1H-pyrrol-2-ylmethyl]phenyl}-2-(hydroxy)ethanesulfonamide], for which, in assay [1], the “% Inhibition of writhing responses” value worked out at 16%. In addition, the figures for the pIC50 on COX II and on COX I were 7.30 and 5.00, respectively. In the assay on air pouch PGE2 formation (10 mg/Kg, 3 hr), the “% Inhibition of air pouch PGE2 formation” value was determined as 96%. The “% Inhibition (of the increase in hind paw weight)” value in assay [2] stood at 31%.
The matching figures for `COc1ccc(C(=O)c2c(C)cc(Cc3ccc(NS(=O)(=O)CCO)cc3F)n2C)cc1` [compound 98, N-{3-Fluoro-4-[5-(4-methoxybenzoyl)-1,4-dimethyl-1H-pyrrol-2-ylmethyl]phenyl}-2-(hydroxy)ethanesulfonamide]: 71%, 6.64, over 7.00, 98% and 42%.
Consider `Cc1cc(Cc2ccc(NS(N)(=O)=O)cc2F)n(C)c1C(=O)c1ccc(Cl)cc1` [compound 146, 1-{3-Fluoro-4-[5-(4-chlorobenzoyl)-1,4-dimethyl-1H-pyrrol-2-ylmethyl]phenyl}sulfamide], for which the pIC50 on COX II is 7.22; on COX I, 5.54. In the assay on air pouch PGE2 formation (10 mg/Kg, 3 hr), the “% Inhibition of air pouch PGE2 formation” value was determined as 93%. The “% Inhibition (of the increase in hind paw weight)” value in assay [2] was found to be 40%.
The matching figures for `Cc1ccc(C(=O)c2ccc(Cc3ccc(NS(N)(=O)=O)cc3F)n2C)c(C)c1` [compound 165, 1-{3-Fluoro-4-[5-(2,4-dimethylbenzoyl)-1-methyl-1H-pyrrol-2-ylmethyl]phenyl}sulfamide]: 7.02, 4.77, 52% and 17%.
For the molecule `Cc1cc(Cc2ccc(O)cc2)n(C)c1C(=O)c1ccc(Cl)cc1` [compound 343, 4-{5-(4-Chlorobenzoyl)-1,4-dimethyl-1H-pyrrol-2-ylmethyl}phenol], the pIC50 at COX II was 6.27; on COX I, 5.18. The “% Inhibition (of the increase in hind paw weight)” value in assay [2] is 35%.
Turning to `COc1ccc2c(c1)c(CC(=O)O)c(C)n2C(=O)c1ccc(Cl)cc1` [Indomethacin, indomethacin, reference compound], in the assay with air pouch PGE2 formation (2-5 mg/Kg, time not given), the “% Inhibition of air pouch PGE2 formation” value is on record as over 70%. The “effect on cognitive decline of Alzheimer's patients (in words)” value in assay [3] is listed as “inhibit the cognitive decline of Alzheimer's patients”.
Take `COc1ccc(C(=O)c2ccc(Cc3ccc(NS(C)(=O)=O)cn3)n2C)cc1` [compound 288, N-{2-[5-(4-Methoxybenzoyl)-1-methyl-1H-pyrrol-2-ylmethyl]pyridin-5-yl}-methanesulfonamide]: the pIC50 at COX II was 6.26; at COX I, 3.63. Moreover, the “% Inhibition of air pouch PGE2 formation” value in the assay with air pouch PGE2 formation (10 mg/Kg, 3 hr) is given as 53%. In assay [2], the “% Inhibition (of the increase in hind paw weight)” value came out at 20%.
Turning to `Cc1ccc(C(=O)c2ccc(Cc3ccc(NS(=O)(=O)CCO)cc3F)n2C)c(C)c1` [compound 48, N-{3-Fluoro-4-[5-(2,4-dimethylbenzoyl)-1-methyl-1H-pyrrol-2-ylmethyl]phenyl}-2-(hydroxy)ethanesulfonamide], the pIC50 at COX II was 7.10; on COX I, 4.21. Moreover, the “% Inhibition of air pouch PGE2 formation” value with air pouch PGE2 formation (30 mg/Kg, 3 hr) was determined as 64%. For the same molecule, the “% Inhibition (of the increase in hind paw weight)” value in assay [2] came to 35%.
In the case of `Cc1cc(Cc2ccc(NS(C)(=O)=O)cn2)n(C)c1C(=O)c1ccc(Cl)cc1` [compound 263, N-{2-[5-(4-Chlorobenzoyl)-1,4-dimethyl-1H-pyrrol-2-ylmethyl]pyridin-5-yl}-methanesulfonamide], the “% Inhibition of writhing responses” value in assay [1] is recorded as 31%. Also, the pIC50 on COX II is 6.35; on COX I, 4.31. For the same molecule, the “% Inhibition of air pouch PGE2 formation” value in the assay with air pouch PGE2 formation (30 mg/Kg, 6 hr) is listed as 80%. For the same molecule, in assay [2], the “% Inhibition (of the increase in hind paw weight)” value was determined as 40%.

The values are drawn from patent publication US5952368A, “5-aroylpyrrol-2-ylmethylarene derivatives” (Syntex (U.S.A.) Inc., priority 1997, dated 1999).
